The target in the test is Inositol-trisphosphate 3-kinase A (Homo sapiens, UniProt P23677). Description: Inhibition Assay. Particulars: pH 8; 37 °C. The method, then:
IP3K reactions were carried out in a 100ul solution that contained Tris-Cl, EGTA, ATP, DTT, 2,3-diphosphoglycerate, D-l(1,4,5)P3, [3H]-l(1,4,5)P3 and various amounts of synthetic purine analogues.

Sequence of Inositol-trisphosphate 3-kinase A (P23677 whole entry): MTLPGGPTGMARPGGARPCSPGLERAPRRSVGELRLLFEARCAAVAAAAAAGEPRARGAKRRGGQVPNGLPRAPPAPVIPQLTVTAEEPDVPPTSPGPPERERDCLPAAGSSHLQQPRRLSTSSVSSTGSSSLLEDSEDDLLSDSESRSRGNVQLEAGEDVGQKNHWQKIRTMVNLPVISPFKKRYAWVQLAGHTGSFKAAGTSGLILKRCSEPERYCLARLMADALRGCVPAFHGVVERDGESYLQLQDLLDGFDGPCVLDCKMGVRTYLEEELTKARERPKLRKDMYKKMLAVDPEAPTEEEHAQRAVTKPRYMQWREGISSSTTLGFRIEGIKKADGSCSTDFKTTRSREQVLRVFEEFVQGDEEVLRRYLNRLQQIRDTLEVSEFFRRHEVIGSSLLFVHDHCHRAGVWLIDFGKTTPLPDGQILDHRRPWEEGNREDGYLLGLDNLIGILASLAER

For the molecule `Cn1cnc2c(NCc3ccc(N)cc3)nc(NCc3cccc(C(F)(F)F)c3)nc21` [Purine, 1], the half-maximal inhibitory concentration (IC50) was 57.1 µM.

With `Nc1ccc(CNc2nc(NCc3cccc(C(F)(F)F)c3)nc3nc[nH]c23)cc1` [Purine, 2], the IC50 is 13.5 µM.

For the molecule `FC(F)(F)c1cccc(CNc2nc(NCc3ccccc3)c3nc[nH]c3n2)c1` [Purine, 3], the half-inhibitory concentration (IC50) was determined as 13.7 µM.

Molecule `FC(F)(F)c1cccc(CNc2nc(NCc3ccccc3)c3ncn(C4CCCCO4)c3n2)c1` (stereo not given) [Purine, 4] gave an IC50 of 43.4 µM.

`O=[N+]([O-])c1ccc(CNc2nc(NCc3cccc(C(F)(F)F)c3)nc3[nH]cnc23)cc1` [Purine, 5] had a half-maximal inhibitory concentration (IC50) of 10.2 µM and a Ki of 4.3 µM.

As to `Clc1cccc(CNc2nc(NCc3ccccc3)c3[nH]cnc3n2)c1` [Purine, 6], the IC50 came to 150 µM.

`Clc1ccc(CNc2nc(NCc3ccccc3)c3[nH]cnc3n2)cc1` [Purine, 7] showed a half-inhibitory concentration (IC50) of 138 µM.

In turn, `FC(F)(F)c1ccc(CNc2nc(NCc3ccc(C(F)(F)F)cc3)c3[nH]cnc3n2)cc1` [Purine, 8] came in with an IC50 of 102 µM.

In turn, `Fc1ccc(CNc2nc(NCc3ccccc3)c3[nH]cnc3n2)cc1` [Purine, 9] registered an IC50 of 220 µM.

In the case of `Clc1ccc(CNc2nc(Nc3ccccc3)c3[nH]cnc3n2)cc1` [Purine, 10], the concentration for half-maximal inhibition (IC50) amounted to 150 µM.

Molecule `COc1ccc(CNc2nc(NCc3cccc(C(F)(F)F)c3)nc3c2ncn3C(C)C)cc1` [Purine, 11] gave an IC50 of more than 200 µM.

As to `CC(C)n1cnc2c(Nc3cccc(Cl)c3)nc(NCc3cccc(C(F)(F)F)c3)nc21` [Purine, 12], the IC50 was more than 200 µM.

Take `c1ccc(CNc2nc(NCc3ccc4ccccc4c3)nc3nc[nH]c23)cc1` [Purine, 13]: the 50% inhibitory concentration (IC50) turned out to be 63 µM.

Consider `NCc1cccc(CNc2nc(NCc3ccccc3)c3[nH]cnc3n2)c1` [Purine, 14], for which the IC50 was more than 200 µM.

For `CC(Nc1nc(NCc2ccccc2)c2[nH]cnc2n1)c1ccccc1` (stereo not given) [Purine, 15], the IC50 is 117 µM.

In turn, `O=[N+]([O-])c1cccc(CNc2nc(NCc3ccccc3Cl)nc3nc[nH]c23)c1` [Purine, 16] displayed an IC50 of more than 200 µM.

For `O=[N+]([O-])c1ccc(CNc2nc(NCc3ccccc3C(F)(F)F)nc3nc[nH]c23)cc1` [Purine, 17], the midpoint of inhibition, the IC50, lay at 18.2 µM.

As for `O=[N+]([O-])c1ccc(CNc2nc(NCc3ccc(C(F)(F)F)cc3)nc3nc[nH]c23)cc1` [Purine, 18], the IC50 turned out to be 67.6 µM.

In turn, `O=[N+]([O-])c1ccc(CNc2nc(NCc3ccccc3F)nc3nc[nH]c23)cc1` [Purine, 19] registered a 50% inhibitory concentration (IC50) of 23.4 µM.

`O=[N+]([O-])c1ccc(CNc2nc(NCc3cccc(F)c3)nc3nc[nH]c23)cc1` [Purine, 20] had an IC50 of 49 µM.

As to `O=[N+]([O-])c1ccc(CNc2nc(NCc3ccc(F)cc3)nc3nc[nH]c23)cc1` [Purine, 21], the IC50 came out at 28.8 µM.

`O=[N+]([O-])c1ccc(CNc2nc(NCc3ccccc3Cl)nc3nc[nH]c23)cc1` [Purine, 22] registered a 50% inhibitory concentration (IC50) of 28 µM.

On to `O=[N+]([O-])c1ccc(CNc2nc(NCc3cccc(Cl)c3)nc3nc[nH]c23)cc1` [Purine, 23], for which the half-inhibitory concentration (IC50) worked out at 20 µM.

For `O=[N+]([O-])c1ccc(CNc2nc(NCc3ccc(Cl)cc3)nc3nc[nH]c23)cc1` [Purine, 24], the half-maximal inhibitory concentration (IC50) amounted to 12.7 µM.

For the origin of these results see BindingDB's records for doi:10.1002/1439-7633(20020902)3:9 (New York University, 2002).
